ChEMBL document CHEMBL1135111, “Antifungal sordarins. part 3: synthesis and structure-activity relationships of 2',3'-fused oxirane derivatives” (Bioorg Med Chem Lett, 2002)
≈ marks a conversion by molar mass, not a printed value.

Key:
[1] = tested on: Kluyveromyces marxianus; assay: Compound was evaluated for antifungal activity as minimum cell growth inhibition against Candida pseudotropicalis -2371; assay type: functional, candida pseudotrop
[2] = tested on: Candida tropicalis; assay: Compound was evaluated for antifungal activity as minimum cell growth inhibition against Candida tropicalis - 2808; assay type: functional
[3] = tested on: Candida albicans; assay: Compound was evaluated for antifungal activity as minimum cell growth inhibition against Candida albicans - 2005; assay type: functional
[4] = tested on: Cryptococcus neoformans; assay: Compound was evaluated for antifungal activity as minimum cell growth inhibition against Cryptococcus neoformans - 2867; assay type: functional
[5] = tested on: Nakaseomyces glabratus; assay: Compound was evaluated for antifungal activity as minimum cell growth inhibition against Candida glabrata - 2375E; assay type: functional
[6] = tested on: Candida albicans; assay: Compound was evaluated for antifungal activity as minimum cell growth inhibition against Candida albicans - 4711E; assay type: functional

Row | Structure (SMILES) | MIC [1] [µg/mL] | MIC [2] [µg/mL] | MIC [3] [µg/mL] | MIC [4] [µg/mL] | MIC [5] [µg/mL] | MIC [6] [µg/mL]
1 | CO[C@H]1[C@H]2O[C@H]2[C@@H](OCC23C[C@@H]4[C@H](C)CC[C@H]4C4(C=O)CC2C=C(C(C)C)C34C(=O)O)O[C@@H]1C (some centres not stated) | 2 (≈ 4.21 µM) | > 125 | 4 (≈ 8.43 µM) | 125 (≈ 263 µM) | 31 (≈ 65.3 µM) | 16 (≈ 33.7 µM)
2 | COC[C@H]1O[C@@H](OCC23C[C@@H]4[C@H](C)CC[C@H]4C4(C=O)CC2C=C(C(C)C)C34C(=O)O)[C@H]2O[C@H]2[C@@H]1OC (some centres not stated) | 0.25 (≈ 0.495 µM) | 4 (≈ 7.93 µM) | 0.06 (≈ 0.119 µM) | 16 (≈ 31.7 µM) | 62 (≈ 123 µM) | 0.5 (≈ 0.991 µM)
3 | CO[C@H]1[C@@H]2S[C@@H]2[C@H](OCC23C[C@@H]4[C@H](C)CC[C@H]4C4(C=O)CC2C=C(C(C)C)C34C(=O)O)O[C@@H]1C (some centres not stated) | 0.008 (≈ 0.0163 µM) | 0.5 (≈ 1.02 µM) | 0.03 (≈ 0.0611 µM) | > 125 | 16 (≈ 32.6 µM) | 0.12 (≈ 0.245 µM)
4 | CO[C@H]1[C@@H]2O[C@@H]2[C@H](OCC23C[C@@H]4[C@H](C)CC[C@H]4C4(C=O)CC2C=C(C(C)C)C34C(=O)O)O[C@@H]1CO (some centres not stated) | 16 (≈ 32.6 µM) | 31 (≈ 63.2 µM) | 4 (≈ 8.15 µM) | > 125 | > 125 | 16 (≈ 32.6 µM)

Further compounds by falling MIC [1], results first:

Row | MIC [1] [µg/mL] | MIC [2] [µg/mL] | MIC [3] [µg/mL] | MIC [4] [µg/mL] | MIC [5] [µg/mL] | MIC [6] [µg/mL] | Structure (SMILES)
5 | 1 (≈ 2.11 µM) | 31 (≈ 65.3 µM) | 4 (≈ 8.43 µM) | > 125 | 31 (≈ 65.3 µM) | 8 (≈ 16.9 µM) | CO[C@H]1[C@@H]2O[C@@H]2[C@@H](OCC23C[C@@H]4[C@H](C)CC[C@H]4C4(C=O)CC2C=C(C(C)C)C34C(=O)O)O[C@@H]1C (some centres not stated)
6 | 0.12 (≈ 0.253 µM) | 4 (≈ 8.43 µM) | 0.25 (≈ 0.527 µM) | > 125 | 125 (≈ 263 µM) |  | CO[C@H]1[C@H]2O[C@H]2[C@H](OCC23C[C@@H]4[C@H](C)CC[C@H]4C4(C=O)CC2C=C(C(C)C)C34C(=O)O)O[C@@H]1C (some centres not stated)
7 | 0.03 (≈ 0.0467 µM) | 0.06 (≈ 0.0933 µM) | 0.015 (≈ 0.0233 µM) | 0.25 (≈ 0.389 µM) | > 125 | 0.25 (≈ 0.389 µM) | C/C=C/C=C(/O[C@H]1[C@H](O)[C@H](OCC23C[C@@H]4[C@H](C)CC[C@H]4C4(C=O)CC2C=C(C(C)C)C34C(=O)O)O[C@H](C)[C@H]1O)C(=O)C(CC)CC (some centres not stated)
8 | 0.03 (≈ 0.0632 µM) | 0.25 (≈ 0.527 µM) | 0.06 (≈ 0.126 µM) | 8 (≈ 16.9 µM) | 16 (≈ 33.7 µM) | 0.25 (≈ 0.527 µM) | CO[C@H]1[C@@H]2O[C@@H]2[C@H](OCC23C[C@@H]4[C@H](C)CC[C@H]4C4(C=O)CC2C=C(C(C)C)C34C(=O)O)O[C@@H]1C (some centres not stated)
